Reference: patent US6960606B2, “Adamantyl Thiazole Thioureas” (Parker Hughes Institute, priority 2000, dated 2005)
Read-outs that look alike come from different tables or passages of the source.

Key:
[1] = system: HIV-1 strain HTLVIIIB; assay: Inhibition of HIV-1 HTLVIIIB replication in PBMC (p24 antigen EIA); type: cell-based; conditions: for IC50: HIV-1 HTLVIIIB in human PBMC, p24 on day 7, read-out: IC50 HTLVHIB
Description: (§1) Normal human peripheral blood mononuclear cells (PBMNC) from HIV-negative donors were cultured 72 hours in RPMI 1640 supplemented with 20% (v/v) heat-inactivated fetal bovine serum (FBS), 3% interleukin-2, 2 mM L-glutamine, 25 mM HEPES, 2 g/L NaHCO3, 50 μg/mL gentamicin, and 4 μg/mL phytohemagglutinin prior to exposure to the HIV-1 strain HTLVIIIB. The cells were then infected with virus at a multiplicity of infection (MOI) of 0.1 during a 1-hour adsorption period at 37° C. in a humidified 5% CO2 atm. Subsequently, cells were cultured in 96-well microtiter plates (100 μl/well; 2×10^6 cells/mL) in the presence of various inhibitor concentrations. Aliquots of culture supernatants were removed from the wells on the 7th day after infection for p24 antigen assays. The applied p24 enzyme immunoassay (EIA) was the unmodified kinetic assay commercially available from Coulter Corporation/Immunotech, Inc. (Westbrooke, Me.), which utilizes a murine mAb to HIV core protein coated onto microwell strips to which the antigen present in the test culture supernatant samples binds. Percent viral inhibition was calculated by comparing the p24 values from the test substance-treated infected cells with p24 values from untreated infected cells (i.e., virus controls). The effects of various treatments on cell viability were also examined and the results were expressed as the cytotoxic concentration (CC)50 values. The selectivity indices (SI) were calculated using the formula: SI=CC50/IC50.

[2] = system: human peripheral blood mononuclear cells (PBMC); assay: Cell viability / cytotoxicity in PBMC; type: cell-based; conditions: for CC50: cytotoxic concentration, PBMC viability
Description: as §1

[3] = system: NNRTI-resistant HIV-1 strain A17 with a Y181C mutation in RT; assay: microbe, parasite or virus in culture; type: cell-based; conditions: for effective concentrations against NNRTI-resistant HIV-1 isolate A17 (in words): both NNRTI-resistant isolates
[4] = system: A17 variant with Y181C plus K103N mutations in RT; assay: microbe, parasite or virus in culture; type: cell-based, HIV-1; conditions: for effective concentrations against NNRTI-resistant HIV-1 isolate A17 variant (in words): both NNRTI-resistant isolates
[5] = NNRTI-resistant HIV, A17 (Y181C), read-out: IC50 A17
[6] = NNRTI-resistant HIV, A17 variant (Y181C plus K103N), read-out: IC50 A17 variant
[7] = Human immunodeficiency virus 1, 168 h
[8] = Human immunodeficiency virus 1, read-out: IC50 A17
[9] = Human immunodeficiency virus 1, read-out: IC50 A17 variant

Compound	IC50 [1] [µM]	CC50 [2] [µM]	IC50 values, inhibition of HIV-1 replication (in words) [1]	IC50 [4, 6] [µM]	other results
N-[2-Pyridylethyl]-N′-[2-(thiazolyl)]thiourea [Compound 11]	1	100			
N-[2-(2-Indole)ethyl]-N′-[2-(thiazolyl)]thiourea [Compound 8]	< 0.001	28	subnanomolar		effective concentrations against NNRTI-resistant HIV-1 isolate A17 (in words) [3]: nanomolar to low micromolar; effective concentrations against NNRTI-resistant HIV-1 isolate A17 variant (in words) [4]: nanomolar to low micromolar
N-[2-(1-Cyclohexenylethyl)]-N′-[2-(thiazolyl)]thiourea [Compound 2]	0.007	4		> 100	IC50 [3, 5]: 0.9 µM
N-[3-(Pyrrolidinone)propyl]-N′-[2-(thiazolyl)]thiourea [Compound 12]	9	18			
N-[2-(Phenoxyethyl)]-N′-[2-(thiazolyl)]thiourea [Compound 3]	< 0.001	> 100	subnanomolar	> 100	
N-[2-(4-Hydroxyphenyl)ethyl]-N′-[2-(thiazolyl)]thiourea [Compound 10]	> 100				
N-[1-(1-Furoylmethyl)]-N′-[2-(thiazolyl)]thiourea [Compound 6]	< 0.001	> 100	subnanomolar	0.6	effective concentrations against NNRTI-resistant HIV-1 isolate A17 (in words) [3]: nanomolar to low micromolar; effective concentrations against NNRTI-resistant HIV-1 isolate A17 variant (in words) [4]: nanomolar to low micromolar; toxicity to PBMC (in words) [2]: minimally toxic
N-[2-(2-Piperdine)ethyl]-N′-[2-(thiazolyl)]thiourea [Compound 9]	> 100				
N-[2-(4-Methylphenyl)ethyl]-N′-[2-(thiazolyl)]thiourea [Compound 4]	0.07	> 100		> 100	
N-[2-(2-Thiophenylethyl)]-N′-[2-(thiazolyl)]thiourea [Compound 1]	< 0.001	71	subnanomolar		IC50 [3, 5]: > 100 µM
Cc1ccnc2c1NC(=O)c1cccnc1N2C1CC1 [Nevirapine, reference compound]					IC50 [1, 7]: 0.034 µM; IC50 [3, 8]: > 100 µM; IC50 [4, 9]: > 100 µM
N-[1-(1-Adamantyl)methyl]-N′-[2-(thiazolyl)]thiourea [Compound 5]	< 0.001	40	subnanomolar		IC50 [3, 5]: 0.6 µM; effective concentrations against NNRTI-resistant HIV-1 isolate A17 (in words) [3]: nanomolar to low micromolar; effective concentrations against NNRTI-resistant HIV-1 isolate A17 variant (in words) [4]: nanomolar to low micromolar
N-[3-(2-Imidazole)propyl]-N′-[2-(thiazolyl)]thiourea [Compound 7]	< 0.001	35	subnanomolar	> 100	IC50 [3, 5]: > 100 µM
CC(C)Nc1cccnc1N1CCN(C(=O)c2cc3cc(NS(C)(=O)=O)ccc3[nH]2)CC1 [Delavirdine, reference compound]					IC50 [1, 7]: 0.009 µM; IC50 [3, 8]: 50 µM; IC50 [4, 9]: > 100 µM
